Results taken from paper PMC9080521, “Molecular basis of rutin inhibition of protein disulfide isomerase (PDI) by combined in silico and experimental methods” (RSC Advances, 2018).
≈ marks a conversion by molar mass, not a printed value. Where “and” joins values, the source holds several entries; their conditions need not be identical. Identical values can stand only once.

Key:
Water solubility = assay type: physicochemical
PDI = test system: PDI; parameters: method as in PMID 22565308, PMID 26240139; conditions: dose-dependent; cited from earlier work
ERp57 = test system: ERp57; parameters: method as in PMID 22565308; conditions: cited from earlier work
[1] = test system: MBP (MBP-PNGase, MBP-SpoIVB, MBP-MOC1); test: Fluorescence measurement with MBP-fusion control proteins; assay type: binding; conditions: rutin 55 μM, MBP-fusion proteins 18 μM, excitation 430 nm
Protocol: The relevant recombinant proteins were incubated with rutin in black 384-well plate at room temperature for 30 min before measurements. The concentrations of proteins were always kept at 18 μM and rutin was 55 μM. The total assay volume was filled to 100 μL using the protein buffer (pH 7.4). The fluorescence emission spectrum of every mixture were measured with the excitation at 430 nm and the emission at 460 nm at room temperature on a BioTek Synergy microplate reader with a sensitivity of 100 or 120 and measurements of per data with 100 times. […]
presence of three different MBP-fusion proteins. The MBP-fusion proteins (MBP-PNGase protein (gray dash-dot line), MBP-SpoIVB protein (gray dash line) and MBP-MOC1 protein […]
at 430 nm. Addition of rutin (55 μМ) to these proteins (MBP-PNGase in black solid line, MBP-SpoIVB in black dash line and MBP-MOC1 in black dot line) gave the signals almost identical to rutin itself (gray solid), which has a maximum fluorescence at 550 nm.
(1 picture or pasted object on this page, not shown here)

MBP-PDI-b′xa′ E359A = target: T1, MBP-PDI-b′xa′ E359A (Homo sapiens, UniProt P07237, E359A); test: Isothermal titration calorimetry (ITC); assay type: binding; conditions: 25 °C
T1 construct: MBP-PDI-b′xa′(235–479); His-tag; made in house; host or cells: E. coli BL21 (DE3)
T1 sequence (P07237 235-479 E359A): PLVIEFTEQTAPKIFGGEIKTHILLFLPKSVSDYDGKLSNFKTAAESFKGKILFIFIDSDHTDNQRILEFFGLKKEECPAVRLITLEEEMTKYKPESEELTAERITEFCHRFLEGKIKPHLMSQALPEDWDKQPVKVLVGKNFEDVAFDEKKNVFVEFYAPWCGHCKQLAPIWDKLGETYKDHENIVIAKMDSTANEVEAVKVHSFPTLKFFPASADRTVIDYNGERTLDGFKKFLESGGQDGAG
Protocol: (§1) Microcalorimetry titration of rutin to PDI recombinant and mutant proteins used a MicroCal ITC200 microcalorimeter (GE Healthcare). PDI recombinant proteins, which concentration ranges from 25 μM to 50 μM, were added into the cell (about 300 μL). Rutin, with concentration ranging from 500 μM to 1 mM, was injected from syringe to titrate the protein in cell (almost 40 μL). The experiment was performed at 25 °C with a equilibration time of 10 min, the reference power was set to 6.25 μcal s^−1. The process including 25 injections, each of 1, 2 or 2.5 μL rutin, in a duration of 3 s, and the interval time between two injections was 180 s. Data was analyzed with MicroCal Origin (MicroCal).
(§2) Next, we resorted to a more sensitive method, isothermal titration calorimetry (ITC), to measure the direct binding. Due to the weak interaction, this method requires large amounts of high-purity protein samples (about 240 μL at 20–50 μM) to be titrated by the highest concentration of rutin (its water solubility of about 200 μM), so that the release of heat as a result of complex formation reached plateau phase rapidly and was enough to be measured. A problem we encountered is that the starting phase of the S-shape curve of heat measurement cannot always be resolved using the typical titration program of ITC, thus affecting the accuracy of dissociation constant (Kd) measurement from the S-shape ITC curve. This was due to the use of equal volume of small molecule titrant (∼2.5 μL) used in the typical ITC titration. Therefore, we established an optimized ITC titration scheme by using variable drop sizes, which started with small drops (1 μL at first ten times of injection) and ended with large drops (2 μL). We thus obtained S-shape ITC curves with well-defined upper and lower platforms (Fig. 5 and S6 ^†), which allowed the accurate measurements of Kd values.

MBP-PDI-b′xa′ L355R = target: T2, MBP-PDI-b′xa′ L355R (Homo sapiens, UniProt P07237, L355R); test: Isothermal titration calorimetry (ITC); assay type: binding; conditions: 25 °C
T2 construct: MBP-PDI-b′xa′(235–479); His-tag; made in house; host or cells: E. coli BL21 (DE3)
T2 sequence (P07237 235-479 L355R): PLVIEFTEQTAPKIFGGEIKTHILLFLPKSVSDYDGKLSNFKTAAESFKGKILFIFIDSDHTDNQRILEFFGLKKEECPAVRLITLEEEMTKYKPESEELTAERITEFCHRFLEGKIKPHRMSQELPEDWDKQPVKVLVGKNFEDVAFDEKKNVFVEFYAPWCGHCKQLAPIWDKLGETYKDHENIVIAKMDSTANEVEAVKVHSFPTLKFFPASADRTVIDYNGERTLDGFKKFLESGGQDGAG
Protocol: as §1, §2

MBP-PDI-b′xa′ K328E = target: T3, MBP-PDI-b′xa′ K328E (Homo sapiens, UniProt P07237, K328E); test: Isothermal titration calorimetry (ITC); assay type: binding; conditions: 25 °C
T3 construct: MBP-PDI-b′xa′(235–479); His-tag; made in house; host or cells: E. coli BL21 (DE3)
T3 sequence (P07237 235-479 K328E): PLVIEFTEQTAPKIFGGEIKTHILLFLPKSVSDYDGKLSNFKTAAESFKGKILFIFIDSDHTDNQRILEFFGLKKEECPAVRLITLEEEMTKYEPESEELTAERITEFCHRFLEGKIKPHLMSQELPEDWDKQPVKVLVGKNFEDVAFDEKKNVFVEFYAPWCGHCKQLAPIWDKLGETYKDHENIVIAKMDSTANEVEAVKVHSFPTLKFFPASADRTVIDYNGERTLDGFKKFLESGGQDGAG
Protocol: as §1, §2

wt MBP-PDI-b′xa′ = target: T4, wt MBP-PDI-b′xa′ (Homo sapiens, UniProt P07237); test: Isothermal titration calorimetry (ITC); assay type: binding; conditions: 25 °C
T4 construct: MBP-PDI-b′xa′(235–479); His-tag; made in house; host or cells: E. coli BL21 (DE3)
T4 sequence (P07237 235-480): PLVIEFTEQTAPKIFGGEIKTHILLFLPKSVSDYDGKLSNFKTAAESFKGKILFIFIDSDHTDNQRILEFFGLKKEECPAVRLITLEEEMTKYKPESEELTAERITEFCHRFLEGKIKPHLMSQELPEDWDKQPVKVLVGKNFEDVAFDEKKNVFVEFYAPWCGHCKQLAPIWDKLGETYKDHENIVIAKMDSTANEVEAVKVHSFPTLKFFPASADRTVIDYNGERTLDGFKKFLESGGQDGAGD
Protocol: as §1, §2

MBP-PDI-b′xa′ E359K = target: T5, MBP-PDI-b′xa′ E359K (Homo sapiens, UniProt P07237, E359K); test: Isothermal titration calorimetry (ITC); assay type: binding; conditions: 25 °C
T5 construct: MBP-PDI-b′xa′(235–479); His-tag; made in house; host or cells: E. coli BL21 (DE3)
T5 sequence (P07237 235-479 E359K): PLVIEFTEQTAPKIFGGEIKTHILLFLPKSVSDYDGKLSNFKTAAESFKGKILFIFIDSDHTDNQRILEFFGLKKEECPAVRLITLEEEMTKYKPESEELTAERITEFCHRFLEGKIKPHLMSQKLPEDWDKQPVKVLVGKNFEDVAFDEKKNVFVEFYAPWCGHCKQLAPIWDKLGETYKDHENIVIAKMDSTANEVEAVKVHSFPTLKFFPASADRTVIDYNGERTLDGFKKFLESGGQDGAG
Protocol: as §1, §2

MBP-PDI-b′xa′ H354A = target: T6, MBP-PDI-b′xa′ H354A (Homo sapiens, UniProt P07237, H354A); test: Isothermal titration calorimetry (ITC); assay type: binding
T6 construct: MBP-PDI-b′xa′(235–479); His-tag; made in house; host or cells: E. coli BL21 (DE3)
T6 sequence (P07237 235-479 H354A): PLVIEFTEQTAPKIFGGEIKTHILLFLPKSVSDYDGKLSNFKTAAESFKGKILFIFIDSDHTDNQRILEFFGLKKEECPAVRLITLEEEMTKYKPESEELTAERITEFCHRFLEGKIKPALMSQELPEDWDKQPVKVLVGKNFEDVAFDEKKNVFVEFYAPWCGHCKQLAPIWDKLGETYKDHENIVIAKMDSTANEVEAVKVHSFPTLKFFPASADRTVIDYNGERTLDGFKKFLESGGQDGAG
Protocol: as §1, §2

murine MBP-mPDI-b′xa′ = target: T7, murine MBP-mPDI-b′xa′ (Mus musculus, UniProt P09103); test: Insulin reduction assay; assay type: biochemical; conditions: rutin 100 μM, last read (100 min); MBP-mPDI-b′xa′ alone 0.832
T7 construct: MBP-mPDI-b′xa′ (236–477); His-tag; made in house; host or cells: E. coli BL21 (DE3)
T7 sequence (P09103 236-477): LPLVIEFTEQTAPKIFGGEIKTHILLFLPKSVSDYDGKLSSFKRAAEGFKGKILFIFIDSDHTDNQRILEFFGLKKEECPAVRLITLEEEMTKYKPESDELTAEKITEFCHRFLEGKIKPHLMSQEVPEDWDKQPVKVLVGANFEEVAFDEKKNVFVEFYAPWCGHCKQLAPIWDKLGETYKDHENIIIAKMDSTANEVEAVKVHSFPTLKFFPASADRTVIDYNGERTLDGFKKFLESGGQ
Protocol: (§3) The insulin reduction assay was performed to assess the enzymatic activity of PDI and its MBP-fused recombinant proteins. PDI can reduce insulin in the presence of dithiothreitol (DTT) along with increase in turbidity of the reaction mixture. We thus monitored spectrophotometrically the aggregation of reduced insulin through the increase of turbidity. The reductase activity was measured in 100 μL in presence of 600 μM insulin, 1.5 μM PDI and recombinant PDI proteins, 1 mM DTT, and with protein buffer (pH 7.4), at room temperature over 100 min by absorption at 650 nm. For inhibition assay, 100 μM of rutin, kaempferitrin, tiliroside and 2′-O-galloylhyperin or control buffer was added to the reaction system.

full-length human PDI = full-length human PDI (Homo sapiens, UniProt P07237); test: Insulin reduction assay; assay type: biochemical; conditions: compound 100 μM, 1.5 μM protein, last read (100 min); PDI alone 1.125
Chain of full-length human PDI (P07237 18-508): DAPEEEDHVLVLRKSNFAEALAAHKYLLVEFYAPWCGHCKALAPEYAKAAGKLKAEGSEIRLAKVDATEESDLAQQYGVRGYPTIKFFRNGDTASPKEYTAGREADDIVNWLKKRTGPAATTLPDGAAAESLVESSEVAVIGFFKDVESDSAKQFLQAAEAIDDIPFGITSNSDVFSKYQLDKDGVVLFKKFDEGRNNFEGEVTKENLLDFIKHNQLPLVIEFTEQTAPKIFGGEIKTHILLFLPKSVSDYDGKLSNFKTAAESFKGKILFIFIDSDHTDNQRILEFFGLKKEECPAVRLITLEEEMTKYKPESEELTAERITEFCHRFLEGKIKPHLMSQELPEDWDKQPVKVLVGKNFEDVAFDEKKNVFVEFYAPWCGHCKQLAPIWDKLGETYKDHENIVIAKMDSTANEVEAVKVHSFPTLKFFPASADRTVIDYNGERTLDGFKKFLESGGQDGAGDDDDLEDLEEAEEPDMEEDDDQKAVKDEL
Protocol: as §3

For C[C@@H]1O[C@@H](OC[C@H]2O[C@@H](Oc3c(-c4ccc(O)c(O)c4)oc4cc(O)cc(O)c4c3=O)[C@H](O)[C@@H](O)[C@@H]2O)[C@H](O)[C@H](O)[C@H]1O [rutin], the solubility (Water solubility) is listed as ~200 µM (≈ 122 µg/mL), the “IC50 of inhibition of PDI activities” value (PDI) is listed as “micromolar range” and the “inhibition of ERp57” value (ERp57) is listed as “did not inhibit”. The “binding to MBP” value [1] was “does not bind”, the Kd (MBP-PDI-b′xa′ E359A) was 4.1 ± 0.74 µM and the “N (stoichiometry ratio)” value (MBP-PDI-b′xa′ E359A) was 1.18 ± 0.03. The ΔG (MBP-PDI-b′xa′ E359A) was -7.39 ± 0.49 kcal/mol, the Kd (MBP-PDI-b′xa′ L355R) was 3.5 ± 0.39 µM and the “N (stoichiometry ratio)” value (MBP-PDI-b′xa′ L355R) was 1.93 ± 0.03. For the same molecule, the ΔG (MBP-PDI-b′xa′ L355R) was -7.46 ± 0.23 kcal/mol, the Kd (MBP-PDI-b′xa′ K328E) was 2.29 ± 0.36 µM and the “N (stoichiometry ratio)” value (MBP-PDI-b′xa′ K328E) was 0.86 ± 0.02. For the same molecule, the ΔG (MBP-PDI-b′xa′ K328E) was -7.72 ± 0.31 kcal/mol, the Kd (wt MBP-PDI-b′xa′) was 2.31 µM and 2.39 µM and the Kd (MBP-PDI-b′xa′ E359K) was 4.48 ± 0.58 µM. The “N (stoichiometry ratio)” value (MBP-PDI-b′xa′ E359K) was 1.21 ± 0.02, the ΔG (MBP-PDI-b′xa′ E359K) was -7.31 ± 0.45 kcal/mol and the “decrease of binding to H354A mutant compared with wt MBP-PDI-b′xa′” value (MBP-PDI-b′xa′ H354A; ITC Kd 5.98 vs 2.39 μM) was “about 3 times”. The Kd (MBP-PDI-b′xa′ H354A; ITC, 25 °C, H354A) was 5.98 ± 1.08 µM, the “N (stoichiometry ratio)” value (MBP-PDI-b′xa′ H354A; ITC, 25 °C, H354A) was 0.72 ± 0.03 and the ΔG (MBP-PDI-b′xa′ H354A; ITC, 25 °C, H354A) was -7.15 ± 0.86 kcal/mol. The “turbidity (OD650), raw kinetic read at 1:40:32” value (murine MBP-mPDI-b′xa′) was 0.583 and the “turbidity (OD650), raw kinetic read at 1:40:32” value (full-length human PDI) was 0.924.
